Data reported in patent publication US20100196283A1, “METHOD AND IMAGING MEDIUM FOR USE IN THE METHOD” (priority 2007, published 2010).

How the values were obtained:
[1] = Liquid state polarisation by liquid state 13C-NMR at 400 MHz; type: physicochemical
Experimental: In a similar way, the level of polarisation for dissolved hyperpolarised ^13C-lactate may be determined by liquid state NMR measurements. Again the signal intensity of the dissolved hyperpolarised ^13C-lactate is compared with the signal intensity of the dissolved ^13C-lactate before polarisation. The level of polarisation is then calculated from the ratio of the signal intensities of ^13C-lactate before and after polarisation.
After 60 min dynamic nuclear polarisation, the frozen polarised composition obtained was dissolved in 6 ml phosphate buffer (20 mM, pH 7.4, 100 mg/l EDTA). The pH of the final solution containing the dissolved composition was 7.4±0.1. The sodium ^13C1-L-lactate concentration in said final solution was 60±2 mM.
Liquid state polarisation was determined by liquid state ^13C-NMR at 400 MHz to be 18-20%.
After an overnight dynamic nuclear polarisation, the frozen polarised composition obtained was dissolved in 6 ml phosphate buffer (40 mM, pH 7.3, osmolality match to 200 mM with NaCl, 100 mg/l EDTA, 1 eq. NaOH). The pH of the final solution containing the dissolved composition was 7.1. The D-lactate concentration in said final solution was 40 mM.
(§1) Liquid state polarisation was determined by liquid state ^13C-NMR at 400 MHz to be 14%. The liquid state relaxation (T1 at 9.4 T) was determined to 44 s.

[2] = Liquid state relaxation (T1 at 9.4 T); type: physicochemical; conditions: Example 5b
Experimental: as §1

[3] = T1 relaxation in human full blood at 37° C.; type: physicochemical
Text: The isotopic enrichment of the hyperpolarised ^13C-lactate used in the method of the invention is preferably at least 75%, more preferably at least 80% and especially preferably at least 90%, an isotopic enrichment of over 90% being most preferred. Ideally, the enrichment is 100%. ^13C-lactate used in the method of the invention may be isotopically enriched at the C1-position (in the following denoted ^13C1-lactate), at the C2-position (in the following denoted ^13C2-lactate), at the C3-position (in the following denoted ^13C3-lactate), at the C1- and the C2-position (in the following denoted ^13C1,2-lactate), at the C1- and the C3-position (in the following denoted ^13C1,3-lactate), at the C2- and the C3-position (in the following denoted ^13C2,3-lactate) or at the C1-, C2- and C3-position (in the following denoted ^13C1,2,3-lactate). Isotopic enrichment at the C1-position is the most preferred since ^13C1-lactate has a higher, i.e. longer T1 relaxation in human full blood at 37° C. than ^13C-lactate which is isotopically enriched at other C-positions.

Hep-G2 cells = test: In vitro 13C-MR spectroscopy in Hep-G2 cells; type: in vitro ADME
Experimental: An imaging medium was prepared as described in Example 1 and 25 μl of the imaging medium (2.7 mM sodium ^13C1-lactate) was mixed into 10 M Hep-G2 cells. A dynamic set of ^13C-MR spectra was acquired every 5 s with a 15 degree RF pulse. ^13C1-pyruvate was clearly building up over time. The average conversion was 0.3% with a peak conversion (0.4%) approximately 20 s into the experiment.

mice (whole body) = test: In vivo 13C-MR spectroscopy in mice (whole body); parameters: species or system C57Bl/6 mouse
Experimental: 200 μl of an imaging medium which was prepared as described in Example 1 was injected into a C57Bl/6 mouse over a time period of 6 s. The sodium ^13C1-lactate concentration in said imaging medium was 60-90 mM and 3 animals were used in the experiment. A rat size whole body coil (tuned for proton and carbon) was placed over the animal and ^13C-MR spectroscopy was carried out in a 9.4 T magnet. A dynamic set of ^13C-MR spectra (in total 30) was acquired every 3 s with a 15 degree RF pulse. […] The following decay times were calculated from the MR spectra: ^13C1-pyruvate 23 s, ^13C1-alanine 33 s and ^13C1-bicarbonate 24 s.

mice (liver) = test: In vivo 13C-MR spectroscopy in mice (liver); parameters: species or system C57Bl/6 mouse; conditions: liver surface coil; 200 μl of about 60 mM imaging medium; 9.4 T
Experimental: 200 μl of an imaging medium which was prepared as described in Example 1 was injected into a C57Bl/6 mouse over a time period of 6 s. The sodium ^13C1-lactate concentration in said imaging medium was about 60 mM. A surface coil (tuned for proton and carbon) was positioned over the liver of the animal and ^13C-MR spectroscopy was carried out in a 9.4 T magnet. A dynamic set of ^13C-MR spectra (in total 20) was acquired every 5 s with a 30 degree RF pulse. Again a significant amount of metabolism was seen including ^13C1-pyruvate (approximately 3% of the ^13C1-lactate signal), followed by ^13C1-alanine (approximately 3.5% of the ^13C1-lactate signal) at a later point of time (FIG. 3).

[4] = Solid state polarisation by solid state 13C-NMR after DNP; type: physicochemical
Text: The level of polarisation may for instance be determined by solid state ^13C-NMR measurements in solid hyperpolarised ^13C-lactate, e.g. solid hyperpolarised ^13C-lactate obtained by dynamic nuclear polarisation (DNP) of ^13C-lactate. The solid state ^13C-NMR measurement preferably consists of a simple pulse-acquire NMR sequence using a low flip angle. The signal intensity of the hyperpolarised ^13C-lactate in the NMR spectrum is compared with signal intensity of ^13C-lactate in a NMR spectrum acquired before the polarisation process. The level of polarisation is then calculated from the ratio of the signal intensities before and after polarisation.
The probe is inserted into the probe-retaining container, submerged in the liquid helium and irradiated with microwaves. The microwave frequency may be determined from the EPR line of the DNP agent, which depends on the magnetic field of the magnet as 28.0 GHz/T. The optimal microwave frequency may be determined by adjusting the frequency for maximal NMR signal. Preferably, the optimal microwave frequency is in the about 94 GHz for a magnet charged to 3.35 T, 110 GHz for a magnet charged to 4 T, 140 GHz for a magnet charged to 5 T and 200 GHz for a magnet charged to 7 T. The power may be chosen between 50 and 200 mW, dependent on the probe size. The level of polarisation may be monitored as earlier described by for instance acquiring solid state ^13C-NMR signals of the probe during microwave irradiation. Generally, a saturation curve is obtained in a graph showing NMR signal vs. time. […] A solid state ^13C-NMR measurement suitably consists of a simple pulse-acquire NMR sequence using a low flip angle. […] The polarisation is then calculated from the ratio of the signal intensities before and after DNP.
To a micro test tube was added sodium ^13C1-L-lactate solution (78.5 mg, Aldrich, 50% w/w sodium ^13C1-lactate). […] Polarisation was followed by solid state ^13C-NMR and the solid state polarisation was determined to be 20%.

mice (heart) = test: In vivo 13C-MR spectroscopy in mice (heart); parameters: species or system C57Bl/6 mouse; conditions: heart surface coil; 200 μl of about 60 mM imaging medium; 9.4 T
Experimental: 200 μl of an imaging medium which was prepared as described in Example 1 was injected into a C57Bl/6 mouse over a time period of 6 s. The sodium ^13C1-lactate concentration in said imaging medium was about 60 mM and 2 animals were used in the experiment. A surface coil (tuned for proton and carbon) was positioned over the heart of the animal and ^13C-MR spectroscopy was carried out in a 9.4 T magnet. A dynamic set of ^13C-MR spectra (in total 20) was acquired every 5 s with a 30 degree RF pulse. Again a significant amount of metabolism was seen including ^13C1-pyruvate (approximately 2% of the ^13C1-lactate signal), followed by ^13C1-alanine at a later point of time. ^13C1-bicarbonate (approximately 0.5% of the ^13C1-lactate signal) was observable at a similar peak time as ^13C1-pyruvate (FIG. 5).

[5] = 200 μl of 60-90 mM imaging medium injected over 6 s, 9.4 T

Structure (SMILES): C[C@@H](O)C(=O)O [D-lactate]
- liquid state polarisation ([1]; Example 5b, overnight DNP of D-lactic acid, dissolved in phosphate buffer with 1 eq. NaOH, 13C-NMR at 400 MHz): 14%
- liquid state relaxation (T1) [2]: 44 s

Structure (SMILES): C[C@H](O)[13C](=O)O [^13C1-lactate]
- T1 relaxation versus 13C-lactate enriched at other C-positions [3]: longer

Structure (SMILES): C[C@H](O)[13C](=O)[O-].[Na+] [sodium ^13C1-L-lactate]
- peak conversion to 13C1-pyruvate (Hep-G2 cells; 25 μl imaging medium (2.7 mM sodium 13C1-lactate) mixed into 10 M Hep-G2 cells): 0.4%
- average conversion to 13C1-pyruvate (Hep-G2 cells; 25 μl imaging medium (2.7 mM sodium 13C1-lactate) mixed into 10 M Hep-G2 cells, spectra every 5 s): 0.3%
- time of peak conversion to 13C1-pyruvate (Hep-G2 cells; Hep-G2 cells, time into the experiment): approximately 20 s
- 13C1-alanine signal as % of the 13C1-lactate signal (mice (whole body); [5]): approximately 1.5%
- 13C1-bicarbonate signal as % of the 13C1-lactate signal (mice (whole body); [5]): approximately 0.5%
- 13C1-pyruvate signal as % of the 13C1-lactate signal (mice (whole body); [5]): approximately 2%
- decay time of 13C1-alanine signal (mice (whole body); calculated from the MR spectra): 33 s
- decay time of 13C1-bicarbonate signal (mice (whole body); calculated from the MR spectra): 24 s
- decay time of 13C1-pyruvate signal (mice (whole body); calculated from the MR spectra): 23 s
- 13C1-alanine signal as % of the 13C1-lactate signal (mice (liver)): approximately 3.5%
- 13C1-bicarbonate levels observed (mice (liver)): very low levels
- 13C1-pyruvate signal as % of the 13C1-lactate signal (mice (liver)): approximately 3%
- solid state polarisation ([4]; Example 1a, aqueous trityl radical and Gd-chelate solutions, DNP at 1.2 K, 3.35 T, 94 GHz): 20%
- solid state polarisation ([4]; Example 2, water/glycerol mixture (75:25) for trityl and Gd-chelate solutions): 17-20%
- solid state polarisation ([4]; Example 3, water/glycerol mixture (50:50) for trityl and Gd-chelate solutions): 25%
- liquid state polarisation ([1]; Example 1b, after 60 min DNP, dissolved in 6 ml phosphate buffer pH 7.4, 13C-NMR at 400 MHz): 18-20%
- liquid state polarisation ([1]; Example 2, water/glycerol mixture (75:25), dissolved as in Example 1b): 15-20%
- liquid state polarisation ([1]; Example 3, water/glycerol mixture (50:50), dissolved as in Example 1b): 25%
- 13C1-bicarbonate signal as % of the 13C1-lactate signal (mice (heart)): approximately 0.5%
- 13C1-pyruvate signal as % of the 13C1-lactate signal (mice (heart)): approximately 2%
